In test [1] the target is T1, B. subtilis Pol IIIC (Bacillus subtilis, UniProt P13267).
T1 construct: made in house
In words: Polymerase IIIC (Pol IIIC) assay, determination of Ki values. The conditions noted are these: Ki (µM) Pol IIIC, assay in absence of dGTP or dATP; Ki is the concentration that reduces control polymerase IIIC activity by 50 percent. Format: biochemical. Here is the method: (§1) The following methods were used to characterize representative compounds. Minimal Inhibitory Concentration (MIC) determinations. MIC values were determined in 96 well plates, with bacterial growth monitored at OD 600 nm in 200µl following an initial bacterial seeding at approximately 1x10^5 colony forming units (CFU)/ml. Each drug is evaluated at five concentrations, with five data points at each dilution. MIC values (µg/ml) were determined against actively growing cultures in Heart-Brain Infusion (HBI) medium. Cell growth in cultures supplemented with a test compound was calculated as a percent of control at OD 600 nm after 16 to 18 hours at 37°C. […] Polymerase IIIC (Pol IIIC) assay. DNA polymerase activity (or inhibition thereof) was measured in a 96-well plate format. B. subtilis Pol IIIC was isolated as described by Hammond and Brown (Protein Expr. Purif., 3: 65-70 (1992)). Each 25 µl assay contained 30 mM Tris, pH 7.5, 10 mM magnesium acetate, 4 mM dithiothreitol, 20% glycerol, with 25 µM dATP, dCTP, dGTP and 10 µM dTTP (^3H-labelled at 1.44 Ci/mmole) and 0.4 mg/ml activated calf thymus DNA as substrates, as described previously (see Barnes et al, op. cit). Assays were initiated by the addition of 0.025 to 0.06 units of enzyme 1 unit is the amount required to incorporate 250 pmoles of [^3H] dTMP in a standard assay), incubated for 10 minutes at 30°C and terminated by the addition of 200 µl of cold 10% trichloroacetic acid (TCA),10 mM sodium pyrophosphate. Precipitated labeled DNA was collected on glass fiber filter plates, washed, dried, and counted in a liquid scintillation counter. Determination of Ki values. DNA polymerase activity was measured in a 96-well plate format in the absence of dGTP or dATP, depending on the structure of the test compound. Each 25 µl assay contained 30 mM Tris, pH 7.5, 10 mM magnesium acetate, 4 mM dithiothreitol, 20% glycerol, with 25 µM dATP, dCTP, and 10 µM dTTP (^3H-labelled at 1.44 Ci/mmole) and 0.4 mg/ml activated calf thymus DNA as substrates, as described previously. […] Assays were initiated by the addition of 0.025 to 0.06 units of enzyme (1 unit is the amount required to incorporate 250 pmoles of [^3H] dTMP in a standard assay), incubated for 10 minutes at 30 °C and terminated by the addition of 200 µl of cold 10% trichloroacetic acid, 10 mM sodium pyrophosphate. Precipitated labeled DNA was collected on glass fiber filter plates, washed, dried, and counted in a liquid scintillation counter. Ki is the concentration of test compound that reduces the control polymerase IIIC activity by 50 percent.

The test system of test [2] is B. subtilis. The test can be described thus: Minimal Inhibitory Concentration (MIC) determination, 96 well plates. Format: cell-based, Bacillus subtilis. The conditions noted are these: Bacillus subtilis; HBI medium, 16 to 18 hours at 37°C; read-out: MIC (µg/ml) B. subtilis. As to the method: as §1
(§2) MIC values were determined for the Gram positive bacteria Bacillus subtilis, Staphylococcus aureus (two strains), Enterococcus fecalis, Enterococcus fecium, and for the Gram negative bacterium Escherichia coli.

Test [3] relates to S. aureus. The description is as above. Format: cell-based, Staphylococcus aureus. The conditions noted are these: Staphylococcus aureus; HBI medium, 16 to 18 hours at 37°C; read-out: MIC (µg/ml) S. aureus. As to the method:
(§3) The following methods were used to characterize representative compounds. Minimal Inhibitory Concentration (MIC) determinations. MIC values were determined in 96 well plates, with bacterial growth monitored at OD 600 nm in 200µl following an initial bacterial seeding at approximately 1x10^5 colony forming units (CFU)/ml. Each drug is evaluated at five concentrations, with five data points at each dilution. MIC values (µg/ml) were determined against actively growing cultures in Heart-Brain Infusion (HBI) medium. Cell growth in cultures supplemented with a test compound was calculated as a percent of control at OD 600 nm after 16 to 18 hours at 37°C. This plate format conserves test compound and provides precise, quantitative data with low standard deviation determinations. Polymerase IIIC (Pol IIIC) assay. DNA polymerase activity (or inhibition thereof) was measured in a 96-well plate format. B. subtilis Pol IIIC was isolated as described by Hammond and Brown (Protein Expr. Purif., 3: 65-70 (1992)). Each 25 µl assay contained 30 mM Tris, pH 7.5, 10 mM magnesium acetate, 4 mM dithiothreitol, 20% glycerol, with 25 µM dATP, dCTP, dGTP and 10 µM dTTP (^3H-labelled at 1.44 Ci/mmole) and 0.4 mg/ml activated calf thymus DNA as substrates, as described previously (see Barnes et al, op. cit). Assays were initiated by the addition of 0.025 to 0.06 units of enzyme 1 unit is the amount required to incorporate 250 pmoles of [^3H] dTMP in a standard assay), incubated for 10 minutes at 30°C and terminated by the addition of 200 µl of cold 10% trichloroacetic acid (TCA),10 mM sodium pyrophosphate. Precipitated labeled DNA was collected on glass fiber filter plates, washed, dried, and counted in a liquid scintillation counter. Determination of Ki values. DNA polymerase activity was measured in a 96-well plate format in the absence of dGTP or dATP, depending on the structure of the test compound. Each 25 µl assay contained 30 mM Tris, pH 7.5, 10 mM magnesium acetate, 4 mM dithiothreitol, 20% glycerol, with 25 µM dATP, dCTP, and 10 µM dTTP (^3H-labelled at 1.44 Ci/mmole) and 0.4 mg/ml activated calf thymus DNA as substrates, as described previously. To each well were added 2 µl of compound solution to give final concentrations ranging from 20 - 0.027 µg/ml in the assay. Assays were initiated by the addition of 0.025 to 0.06 units of enzyme (1 unit is the amount required to incorporate 250 pmoles of [^3H] dTMP in a standard assay), incubated for 10 minutes at 30 °C and terminated by the addition of 200 µl of cold 10% trichloroacetic acid, 10 mM sodium pyrophosphate. Precipitated labeled DNA was collected on glass fiber filter plates, washed, dried, and counted in a liquid scintillation counter. Ki is the concentration of test compound that reduces the control polymerase IIIC activity by 50 percent.
as §2

The subject of test [4] is S.aureus (Smith). The description is as above. Format: cell-based, Staphylococcus aureus. The conditions noted are these: Staphylococcus aureus; HBI medium, 16 to 18 hours at 37°C; read-out: MIC (µg/ml) S.aureus (Smith). As to the method:
as §1, §2

Test [5] has as its system E. fecalis. The test is described as above. The format is cell-based, Enterococcus fecalis. The conditions noted are these: Enterococcus; HBI medium, 16 to 18 hours at 37°C; read-out: MIC (µg/ml) E. fecalis. Here is the method: as §1, §2
The test system of test [6] is E. fecium. The test is described as above. The format is cell-based, Enterococcus fecium. The conditions noted are these: Enterococcus; HBI medium, 16 to 18 hours at 37°C; read-out: MIC (µg/ml) E. fecium. As to the method:
as §1, §2

In test [7] the test system is E. coli. The description is as above. The conditions noted are these: Escherichia coli; HBI medium, 16 to 18 hours at 37°C; read-out: MIC (µg/ml) E. coli. The format is cell-based, Escherichia coli. As to the method: as §3, §2

Molecules are shown by their SMILES. Converted amounts (≈) assume the structure as drawn. A value given as a limit tells only on which side of the number the result lay.

As usually defined, the Ki is a dissociation constant, usually derived from enzyme kinetics or from competition with a known ligand. High values mean lower affinity, low ones higher affinity.

T1 sequence (P13267 whole entry): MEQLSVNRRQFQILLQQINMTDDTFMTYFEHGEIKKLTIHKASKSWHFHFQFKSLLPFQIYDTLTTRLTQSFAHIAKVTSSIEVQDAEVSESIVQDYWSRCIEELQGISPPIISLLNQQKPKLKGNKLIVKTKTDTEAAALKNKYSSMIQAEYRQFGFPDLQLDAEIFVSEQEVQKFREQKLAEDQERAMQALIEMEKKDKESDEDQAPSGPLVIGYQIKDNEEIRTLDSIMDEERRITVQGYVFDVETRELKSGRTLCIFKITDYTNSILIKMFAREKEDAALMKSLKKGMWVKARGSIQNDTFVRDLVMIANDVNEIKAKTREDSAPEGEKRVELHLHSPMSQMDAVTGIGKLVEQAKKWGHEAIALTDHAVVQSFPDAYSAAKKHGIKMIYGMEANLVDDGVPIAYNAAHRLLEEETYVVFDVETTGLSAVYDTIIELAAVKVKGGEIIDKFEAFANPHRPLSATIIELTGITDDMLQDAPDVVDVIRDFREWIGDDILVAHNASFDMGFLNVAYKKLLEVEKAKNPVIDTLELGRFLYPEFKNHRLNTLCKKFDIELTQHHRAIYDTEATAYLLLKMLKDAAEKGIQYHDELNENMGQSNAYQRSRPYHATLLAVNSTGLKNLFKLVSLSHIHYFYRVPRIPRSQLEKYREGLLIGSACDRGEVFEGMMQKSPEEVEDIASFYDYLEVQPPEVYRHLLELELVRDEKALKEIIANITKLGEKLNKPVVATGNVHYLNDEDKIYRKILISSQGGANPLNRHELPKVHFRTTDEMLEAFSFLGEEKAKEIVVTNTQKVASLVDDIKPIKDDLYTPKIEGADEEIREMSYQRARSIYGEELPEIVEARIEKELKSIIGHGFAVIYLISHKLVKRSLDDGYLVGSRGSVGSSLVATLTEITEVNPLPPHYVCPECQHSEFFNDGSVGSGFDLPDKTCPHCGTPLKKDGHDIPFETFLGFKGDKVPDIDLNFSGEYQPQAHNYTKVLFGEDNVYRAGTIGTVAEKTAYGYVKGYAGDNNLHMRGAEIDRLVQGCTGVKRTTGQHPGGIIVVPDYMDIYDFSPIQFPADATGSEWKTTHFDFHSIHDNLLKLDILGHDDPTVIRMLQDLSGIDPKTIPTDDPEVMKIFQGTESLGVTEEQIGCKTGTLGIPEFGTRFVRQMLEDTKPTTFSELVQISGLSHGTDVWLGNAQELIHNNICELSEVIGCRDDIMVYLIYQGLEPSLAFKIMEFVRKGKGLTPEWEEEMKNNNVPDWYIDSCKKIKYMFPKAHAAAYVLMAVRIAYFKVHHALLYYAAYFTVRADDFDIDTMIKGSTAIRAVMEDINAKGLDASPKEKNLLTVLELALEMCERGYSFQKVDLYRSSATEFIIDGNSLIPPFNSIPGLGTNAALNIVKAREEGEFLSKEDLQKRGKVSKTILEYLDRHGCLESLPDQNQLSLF

In test [1], `CCc1cccc(Nc2cc(=O)n(CCCCN3CCN(c4cc5c(cc4F)c(=O)c(C(=O)O)cn5C4CC4)CC3)c(=O)[nH]2)c1` [Compound 66, 3-{4-[1-(1-cyclopropyl-3-carboxy-4-oxo-6-fluoro-7-quinolyl)-4-piperazinyl]butyl}-6-(3-ethylanilino)uracil] came in with a Ki of 0.26 µM. The MIC in test [2] was found to be 0.313 µg/mL (≈ 0.508 µM); in test [3], 0.95 µg/mL (≈ 1.54 µM); in test [4], 0.625 µg/mL (≈ 1.01 µM); in test [5], 1.25 µg/mL (≈ 2.03 µM); in test [6], 3.7 µg/mL (≈ 6 µM); in test [7], 6.1 µg/mL (≈ 9.89 µM).

The compound `O=C(O)c1cn(C2CC2)c2cc(N3CCN(CCCCn4c(=O)cc(Nc5ccc6c(c5)CCC6)[nH]c4=O)CC3)c(F)cc2c1=O` [Compound 67, 3-{4-[1-(1-cyclopropyl-3-carboxy-4-oxo-6-fluoro-7-quinolyl)-4-piperazinyl]butyl}-6-(5-indanylamino)uracil] displayed a Ki in test [1] of 0.034 µM. The MIC in test [2] worked out at 0.23 µg/mL (≈ 0.366 µM); in test [3] it was 0.625 µg/mL (≈ 0.994 µM); in test [4], 0.313 µg/mL (≈ 0.498 µM); in test [5] it was 1.25 µg/mL (≈ 1.99 µM); in test [6], 2.5 µg/mL (≈ 3.98 µM); in test [7], 10 µg/mL (≈ 15.9 µM).

With `O=C(O)c1cn(C2CC2)c2cc(N3CCN(CCCCn4c(=O)cc(NCc5ccc(Cl)c(Cl)c5)[nH]c4=O)CC3)c(F)cc2c1=O` [Compound 68, 3-{4-[1-(1-cyclopropyl-3-carboxy-4-oxo-6-fluoro-7-quinolyl)-4-piperazinyl]butyl}-6-(3,4-dichlorobenzylamino)uracil], in test [1], the Ki came out at 0.047 µM. The MIC in test [2] worked out at 0.95 µg/mL (≈ 1.41 µM); in test [3], 1.25 µg/mL (≈ 1.86 µM); in test [4] it was 0.625 µg/mL (≈ 0.931 µM); in test [5] it was 40 µg/mL (≈ 59.6 µM); in test [6], 1.25 µg/mL (≈ 1.86 µM); in test [7], 12.5 µg/mL (≈ 18.6 µM).

In test [1], `CCc1cc(Nc2cc(=O)n(CCCCN3CCN(c4cc5c(cc4F)c(=O)c(C(=O)O)cn5C4CC4)C(C)C3)c(=O)[nH]2)ccc1C` (centres unmarked) [Compound 69, 3-{4-[1-(1-cyclopropyl-3-carboxy-4-oxo-6-fluoro-7-quinolyl)-2-methyl-4-piperazinyl]butyl}-6-(3-ethyl-4-methylanilino)uracil] had a Ki of 0.026 µM. Besides, the MIC came to 0.23 µg/mL (≈ 0.357 µM) in test [2]; 0.625 µg/mL (≈ 0.969 µM) in test [3]; 0.46 µg/mL (≈ 0.713 µM) in test [4]; 0.95 µg/mL (≈ 1.47 µM) in test [5]; 1.25 µg/mL (≈ 1.94 µM) in test [6]; 30 µg/mL (≈ 46.5 µM) in test [7].

Take `CCc1cc(Nc2cc(=O)n(CCCCN3CCN(c4c(F)cc5c(=O)c(C(=O)O)cn(C6CC6)c5c4F)C[C@@H]3C)c(=O)[nH]2)ccc1C` [Compound 71, (S)-3-{4-[1-(1-cyclopropyl-3-carboxy-4-oxo-6,8-difluoro-7-quinolyl)-3-methyl-4-piperazinyl]butyl}-6-(3-ethyl-4-methylanilino)uracil]: the inhibition constant (Ki) in test [1] stood at 0.007 µM. Also, the MIC in test [2] is 0.156 µg/mL (≈ 0.235 µM); in test [3], 0.313 µg/mL (≈ 0.472 µM); in test [4] it was 0.156 µg/mL (≈ 0.235 µM); in test [5], 1.25 µg/mL (≈ 1.89 µM); in test [6], 1.87 µg/mL (≈ 2.82 µM); in test [7] it was 5 µg/mL (≈ 7.54 µM).

Consider `CCc1cc(Nc2cc(=O)n(CCCCN3CCN(c4c(F)cc5c(=O)c(C(=O)O)cn(C6CC6)c5c4F)C[C@H]3C)c(=O)[nH]2)ccc1C` [Compound 72, (R)-3-{4-[1-(1-cyclopropyl-3-carboxy-4-oxo-6,8-difluoro-7-quinolyl)-3-methyl-4-piperazinyl]butyl}-6-(3-ethyl-4-methylanilino)uracil], for which the Ki in test [1] turned out to be 0.004 µM. In addition, the MIC in test [2] stood at 0.156 µg/mL (≈ 0.235 µM); in test [3] it was 0.625 µg/mL (≈ 0.943 µM); in test [4], 0.625 µg/mL (≈ 0.943 µM); in test [5] it was 1.25 µg/mL (≈ 1.89 µM); in test [6], 1.25 µg/mL (≈ 1.89 µM); in test [7] it was 20 µg/mL (≈ 30.2 µM).

`CCc1cc(Nc2ccc(CCCCN3CCN(c4cc5c(cc4F)c(=O)c(C(=O)O)cn5CC)CC3)c(=O)[nH]2)ccc1C` [Compound 78, 3-{4-[1-(1-ethyl-3-carboxy-4-oxo-6-fluoro-7-quinolyl)-4-piperazinyl]butyl}-6-(3-ethyl-4-methylanilino)-2-pyridone] showed an inhibition constant Ki in test [1] of 2.4 µM. For the same compound, the MIC in test [2] is 0.625 µg/mL (≈ 1.04 µM); in test [3], 1.25 µg/mL (≈ 2.08 µM); in test [4] it was 2.5 µg/mL (≈ 4.15 µM); in test [5], 5 µg/mL (≈ 8.31 µM); in test [6], 5 µg/mL (≈ 8.31 µM); in test [7], > 80 µg/mL.

Take `CCc1cc(Nc2cc(=O)n(CCCCN3CCN(c4ncc5c(=O)c(C(=O)O)cn(CC)c5n4)CC3)c(=O)[nH]2)ccc1C` [Compound 79, 3-{4-[1-(1-ethyl-3-carboxy-4-oxo-6,8-diaza-7-quinolyl)-4-piperazinyl]butyl}-6-(3-ethyl-4-methylanilino)uracil]: in test [1], affinity was put at a Ki of 0.028 µM. Besides, the MIC in test [2] was 0.156 µg/mL (≈ 0.259 µM); in test [3] it was 1.25 µg/mL (≈ 2.07 µM); in test [4] it was 0.95 µg/mL (≈ 1.58 µM); in test [5], 2.5 µg/mL (≈ 4.15 µM); in test [6], 3.7 µg/mL (≈ 6.14 µM); in test [7] it was > 80 µg/mL.

Source of the values: EP1401829B1, “NOVEL HETEROCYCLIC ANTIBACTERIAL COMPOUNDS” (Microbiotix, Inc., priority 2001, dated 2002).
